# Columns and labels:
# [1] = Antibacterial in vitro activity, general statement; format: cell-based; conditions: in words
# From the text: (§1) Metabolite A, metabolite B (hereafter referred to as gardimycin) as well as its salts with alkali and alkali earth metals and metabolite C show good antibacterial in vitro and in vivo activities.
# Streptococcus viridans = assay: Minimal inhibitory concentration, clinically isolated strains (Table 2); format: cell-based
# From the text: (§2) Another favorable characteristic of the antibiotic substance gardimycin is that it is active against clinically isolated Streptococcus strains.
# [2] = test system: Streptococcus haemolyticus; assay: as above; format: cell-based
# From the text: as §2
# [3] = test system: Streptococcus haemolyticus C 203; assay: Experimental infection in mice; format: in vivo
# Toxicity (LD50) = format: in vivo
# [4] = test system: Diplococcus pneumoniae UC 41; assay: In vitro minimal inhibitory concentration (Table 1); format: cell-based
# From the text: as §1
# [5] = test system: Micrococcus flavus ATCC 10240; assay: as above; format: cell-based
# From the text: as §1
# [6] = test system: Streptococcus faecalis ATCC 10541; assay: as above; format: cell-based
# From the text: as §1
# [7] = test system: Staphylococcus aureus ATCC 538; assay: as above; format: cell-based
# From the text: as §1
# [8] = test system: Neisseria gonorrheae ATCC 9826; assay: as above; format: cell-based
# From the text: as §1
# [9] = test system: Streptococcus haemolyticus C 203; assay: as above; format: cell-based
# From the text: as §1
# [10] = Antibacterial in vivo activity, general statement; conditions: in words
# From the text: as §1
# [11] = test system: Diplococcus pneumoniae UC 41; assay: Experimental infection in mice; format: in vivo
# [12] = test system: pathogenic bacteria of the genus Diplococcus and Streptococcus; assay: In vivo activity against experimental infections in mice, general statement; conditions: in words
# [13] = test system: clinically isolated Streptococcus strains; assay: Activity against clinically isolated Streptococcus strains, general statement; format: cell-based; conditions: in words
# From the text: as §2
# [14] = test system: Clostridium perfringens ISS 30543; format: cell-based
substance,measurement,setting,value
gardimycin,antibacterial in vitro activity,[1],good
same,Minimal inhibitory concentration,Streptococcus viridans; clinically isolated strain 2057,5 µg/mL
same,Minimal inhibitory concentration,Streptococcus viridans; clinically isolated strain 2085,2 µg/mL
same,Minimal inhibitory concentration,[2]; clinically isolated strain 2078,1 µg/mL
same,Minimal inhibitory concentration,[2]; clinically isolated strain 2087,1 µg/mL
same,ED50,[3],0.75 mg/kg
same,LD50,Toxicity (LD50); i.p.,higher than 1000 mg/Kg
same,LD50,Toxicity (LD50); i.v.,about 2000 mg/Kg
same,toxicity,Toxicity (LD50); in words,very low toxicity
same,Minimal inhibitory concentration,[4],50 µg/mL
same,Minimal inhibitory concentration,[5],1 µg/mL
same,Minimal inhibitory concentration,[6],50 µg/mL
same,Minimal inhibitory concentration,[7],50 µg/mL
same,Minimal inhibitory concentration,[8],20 µg/mL
same,Minimal inhibitory concentration,[9],2 µg/mL
same,antibacterial in vivo activity,[10],good
same,ED50,[11],30 mg/kg
same,in vivo activity against experimental infections,[12],very interesting in vivo activity
same,activity against clinically isolated Streptococcus strains,[13],active
same,Minimal inhibitory concentration,[14],2 µg/mL

# Reference: US4022884A, “Gardimycin and process for producing same” (Gruppo Lepetit S.p.A., priority 1974, dated 1977)
